Biological target: T1, CysR (Corynebacterium glutamicum, UniProt Q8NU28)
T1 construct: gene Cgl0121; expressed in E. coli ER2566 from pTYB1 (pCR050)
T1 sequence (Q8NU28 1-381): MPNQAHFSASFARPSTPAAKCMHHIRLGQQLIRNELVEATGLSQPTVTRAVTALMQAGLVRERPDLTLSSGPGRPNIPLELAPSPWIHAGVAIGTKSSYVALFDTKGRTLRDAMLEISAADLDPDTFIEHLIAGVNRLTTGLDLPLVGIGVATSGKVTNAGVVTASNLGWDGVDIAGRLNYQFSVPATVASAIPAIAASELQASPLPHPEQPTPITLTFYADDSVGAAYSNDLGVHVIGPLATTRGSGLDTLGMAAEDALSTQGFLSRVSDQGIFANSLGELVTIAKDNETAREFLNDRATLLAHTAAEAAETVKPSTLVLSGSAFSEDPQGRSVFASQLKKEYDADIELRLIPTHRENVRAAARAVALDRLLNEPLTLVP
Assay: EMSA, effector-dependent DNA binding
Conditions: 10 mM effector; Cy3-labelled 523 bp cysI-fpr2 DNA; 1,000 times molar excess of protein; pH 7.5; room temperature; co-activator

Row | Compound | EMSA, effector-dependent DNA binding
1 | CC(=O)OCC[C@H](N)C(=O)O [OAH, O-acetyl-L-homoserine] | CysR can only bind if either OAS or OAH is added to the assay
2 | CC(=O)OC[C@H](N)C(=O)O [OAS, O-acetyl-L-serine] | CysR can only bind if either OAS or OAH is added to the assay
